Twelve compounds from patent publication US8507510B2, “Sulfoximine-substituted pyrimidines as CDK- and/or VEGF inhibitors, their production and use as pharmaceutical agents” (Bayer Intellectual Property GmbH, priority 2003, dated 2013) can be followed below.

Molecules are shown by their SMILES.

Common to all, as to format: cell-based, human
One test relates to MCF7. As to the kind of experiment: Proliferation assay, MCF7. The following applies: MCF7 cells, 4 days, crystal violet. An excerpt: (§1) Cultivated human tumor cells (MCF7, […] human breast cancer cells, related to ATCC HTB22; NCI-H460, human non-small-cell lung cancer cells, ATCC HTB-177, HCT 116, human colon cancer cells, ATCC CCL-247; DU 145, hormone-independent human prostate cancer cells, ATCC HTB-81; MaTu-MDR, hormone-independent, multiple pharmaceutical agent-resistant human breast cancer cells, EPO-GmbH, Berlin) were flattened out at a density of about 5000 cells/measuring point, depending on the growth rate of the respective cells, in a 96-well multititer plate in 200 μl of the corresponding growth medium. After 24 hours, the cells of one plate (zero-point plate) were colored with crystal violet (see below), while the medium of the other plates was replaced by fresh culture medium (200 μl), to which the test substances were added in various concentrations (0 μm, as well as in the range of 0.01-30 μm; the final concentration of the solvent dimethyl sulfoxide was 0.5%). The cells were incubated for 4 days in the presence of test substances. The cell proliferation was determined by coloring the cells with crystal violet: the cells were fixed by adding 20 μl/measuring point of an 11% glutaric aldehyde solution for 15 minutes at room temperature. After three washing cycles of the fixed cells with water, the plates were dried at room temperature. The cells were colored by adding 100 μl/measuring point of a 0.1% crystal violet solution (the pH was set at 3 by adding acetic acid). After three washing cycles of the colored cells with water, the plates were dried at room temperature. The dye was dissolved by adding 100 μl/measuring point of a 10% acetic acid solution. The extinction was determined by photometry at a wavelength of 595 nm The change of cell growth, in percent, was calculated by normalization of the measured values to the extinction values of the zero-point plate (=0%) and the extinction of the untreated (0 μm) cells (=100%).

The test system of another test is MaTu-ADR. As to the kind of experiment: Proliferation assay, MaTu-ADR. The following applies: Homo sapiens, 96 h, MaTu-ADR cells, 4 days, crystal violet.
Text: as §1

A further test concerns H460. As to the kind of experiment: Proliferation assay, H460. The following applies: H460 cells, 4 days, crystal violet.
Text: as §1

The subject of a further test is DU145. As to the kind of experiment: Proliferation assay, DU145. The following applies: Homo sapiens, DU-145, 96 h, DU145 cells, 4 days, crystal violet.
Text: as §1

For `C[C@@H](O)[C@@H](C)Nc1nc(Nc2ccc(S(=N)(=O)CCO)cc2)ncc1Br` (mixture of isomers) [Example 1.18, (RS)-S-[4-({5-bromo-4-[(1R,2R)-(2-hydroxy-1-methyl-propyl)amino]pyrimidin-2-yl}amino)phenyl]-S-(2-hydroxyethyl)sulfoximide], the IC50 with MCF7 (Homo sapiens, MCF7, 96 h) is < 100 nM.

Regarding `CCS(=N)(=O)c1ccc(Nc2ncc(Br)c(N[C@H](C)[C@@H](C)O)n2)cc1` (mixture of isomers) [Example 1.51, (RS)—S-[4-({5-bromo-4-[(1R,2R)-(2-hydroxy-1-methylpropyl)amino]pyrimidin-2-yl}amino)phenyl]-S-ethyl sulfoximide], the IC50 with MCF7 (Homo sapiens, MCF7, 96 h) stood at 80 nM.

For the compound `CCS(=N)(=O)c1ccc(Nc2ncc(Br)c(N[C@H](C)C(C)(C)O)n2)cc1` (single isomer, unassigned) [Example 1.56], the IC50 in the test with MaTu-ADR was 50 nM; in the test with MCF7 (Homo sapiens, MCF7, 96 h), 20 nM; in the test with H460 (Homo sapiens, NCI-H460, 96 h), 100 nM.

For `CCS(=N)(=O)c1ccc(Nc2ncc(Br)c(N[C@H](C)[C@@H](C)O)n2)cc1` (mixture of isomers) [Example 1.52, (RS)-S-[4-({5-bromo-4-[(1R,2R)-(2-hydroxy-1-methylpropyl)amino]pyrimidin-2-yl}amino)phenyl]-S-ethyl sulfoximide], in the test with MCF7, the IC50 was < 100 nM.

`CCS(=N)(=O)c1ccc(Nc2ncc(Br)c(N[C@H](COC)[C@@H](C)O)n2)cc1` (single isomer, unassigned) [Example 1.50] yielded an IC50 in the test with MCF7 (Homo sapiens, MCF7, 96 h) of 1200 nM.

As for `CCS(=N)(=O)c1ccc(Nc2ncc(Br)c(N[C@H](COC)[C@@H](C)O)n2)cc1` (mixture of isomers) [Example 1.48, (RS)—S-{4-[(5-bromo-4-{[(1R,2R)-2-hydroxy-1-(methoxymethyl)-propyl]amino}pyrimidin-2-yl)amino]phenyl}-S-ethyl sulfoximide], half-maximal inhibition in the test on MCF7 (Homo sapiens, MCF7, 96 h) (IC50) was put at 300 nM.

Take `C[C@@H](O)[C@@H](C)Nc1nc(Nc2ccc(S(=N)(=O)CCO)cc2)ncc1Br` (single isomer, unassigned) [Example 1.19]: the 50% inhibitory concentration (IC50) with MCF7 (Homo sapiens, MCF7, 96 h) was < 100 nM.

On to `CCS(=N)(=O)c1ccc(Nc2ncc(Br)c(N[C@H](C)C(C)(C)O)n2)cc1` (mixture of isomers) [Example 1.54, (RS)—S-[4-({5-bromo-4-[(R)-(2-hydroxy-1,2-dimethylpropyl)amino]pyrimidin-2-yl}amino)phenyl]-S-ethyl sulfoximide], for which the IC50 turned out to be 190 nM in the test with DU145, 110 nM in the test with MCF7 and 120 nM with H460.

As to `COc1cc(Nc2ncc(Br)c(N[C@H](C)[C@@H](C)O)n2)ccc1S(C)(=N)=O` (mixture of isomers) [Example 1.26, (RS)-S-[4-({5-bromo-4-[(1R,2R)-(2-hydroxy-1-methylpropyl)amino]pyrimidin-2-yl}amino)-2-methoxyphenyl]-S-methyl sulfoximide], half-maximal inhibition in the test with MCF7 (IC50) required 60 nM.

In the case of `COc1cc(Nc2ncc(Br)c(N[C@H](C)[C@@H](C)O)n2)ccc1S(C)(=N)=O` (single isomer, unassigned) [Example 1.27], the concentration for half-maximal inhibition (IC50) in the test with DU145 is 130 nM; with MCF7 (Homo sapiens, MCF7, 96 h), 60 nM; with H460 (Homo sapiens, NCI-H460, 96 h) it was 20 nM.

In the test with MCF7, `CN=S(C)(=O)c1ccc(Nc2ncc(Br)c(N[C@H](C)[C@@H](C)O)n2)cc1` (mixture of isomers) [Example 1.29, (RS)-S-[4-({5-bromo-4-[(1R,2R)-(2-hydroxy-1-methylpropyl)amino]pyrimidin-2-yl}amino)phenyl]-N,S-dimethyl-sulfoximide] showed a 50% inhibitory concentration (IC50) of 170 nM.

In the test with MCF7, `CN=S(C)(=O)c1ccc(Nc2ncc(Br)c(N[C@H](C)[C@@H](C)O)n2)cc1` (mixture of isomers) [Example 1.30, (RS)-S-[4-({5-bromo-4-[(1R,2R)-(2-hydroxy-1-methylpropyl)amino]pyrimidin-2-yl}amino)phenyl]-N,S-dimethyl-sulfoximide] showed a half-maximal inhibitory concentration (IC50) of 170 nM. That is a sub-micromolar value.
